According to patent US20130225591A1, “IMIDOTHIAZOLE KINASE INHIBITORS” (priority 2009, published 2013):

Target: T1, CDK5-p25 kinase (Homo sapiens, UniProt Q00535)
T1 construct: purchased Invitrogen PV4677
Assay: CDK5-p25 kinase enzymatic assay
Type: biochemical
Conditions: 50 nM-99 nM; 5 uM ATP, 0.3 nM CDK5-p25; read-out: IC50 potency, CDK5-p25 kinase enzymatic assay, 50 nM-99 nM
Experimental: CDK5-p25 kinase (Invitrogen PV4677) enzymatic activity was measured using electrophoretic separation and fluorescent detection to monitor phosphorylation of a fluorescently labeled histone H1-derived peptide substrate, FL29 (5-FAM-GGGPATPKKAKKL-CONH2, Caliper #760429)
First, 0.25 uL of serially diluted compound in DMSO at 100× concentration was transferred into each well of a 384-well polystyrene assay plate. To this was added 15 uL of a 1.67× enzyme solution (500 pM enzyme, 1 mM DTT (Sigma D9779), 1× reconstitution buffer with protease inhibitor (Caliper #700329 proprietary formulation)), followed by centrifugation for 1 min at 1000 rpm, and incubation for 5-15 min at room temperature to allow binding of compound to enzyme. To initiate the reaction, 10 uL of substrate/ATP mix (245 mM Hepes pH 7.5, 0.003% Brij 35, 0.004% Tween, 12.75 uM ATP, 3.75 uM FL29 peptide) were added to each well, followed by centrifugation at 1000 rpm for 1 min. The reaction was then incubated at room temperature for 30 min. Final assay conditions were: 0.3 nM CDK5-p25, 1.5 uM peptide, 5 uM ATP, 0.6 mM DTT, 1% DMSO, 98 mM HEPES pH 7.5.
After incubation, reactions were quenched by the addition of 45 uL Caliper termination solution (Caliper proprietary formula), followed by centrifugation at 1000 rpm for 1 min. Extent of reaction (percentage conversion of substrate to phosphorylated product) was then measured using the Caliper EZ II reader. Dose-response curves were created by plotting the inhibition of enzyme activity (normalized relative to vehicle treated and no ATP control reactions) as a function of the log of compound concentration. The curve was analyzed using a four parameter logistical fit to calculate IC50 values.

T1 sequence (Q00535 whole entry): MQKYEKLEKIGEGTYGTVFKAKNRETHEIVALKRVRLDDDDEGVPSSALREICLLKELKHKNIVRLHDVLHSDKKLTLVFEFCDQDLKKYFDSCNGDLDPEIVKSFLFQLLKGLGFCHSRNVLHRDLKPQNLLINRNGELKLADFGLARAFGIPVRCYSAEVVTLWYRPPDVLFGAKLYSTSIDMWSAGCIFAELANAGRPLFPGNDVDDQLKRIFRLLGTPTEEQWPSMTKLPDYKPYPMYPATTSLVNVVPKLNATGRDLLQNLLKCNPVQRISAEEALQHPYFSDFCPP
T1 sequence (Q15078 99-307 partner limits assumed): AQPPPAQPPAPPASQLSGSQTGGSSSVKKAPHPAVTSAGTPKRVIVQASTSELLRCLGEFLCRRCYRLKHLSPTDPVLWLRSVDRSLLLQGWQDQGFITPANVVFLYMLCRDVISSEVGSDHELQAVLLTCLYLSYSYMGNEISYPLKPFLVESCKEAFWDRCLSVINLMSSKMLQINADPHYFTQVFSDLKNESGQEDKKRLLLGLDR

Structure (SMILES) | IC50 [nM]
O=C(Cc1cccc(NC(=O)c2cccnc2)c1)Nc1ncn2c(C(F)(F)F)csc12 [Example 59, N-[3-(2-oxo-2-{[3-(trifluoromethyl)imidazo[5,1-b][1,3]thiazol-7-yl]amino}ethyl)phenyl] nicotinamide] | 50 to 99
O=C(Cc1cccc(NC(=O)c2ccncc2)c1)Nc1ncn2c(C(F)(F)F)csc12 [Example 60, N-[3-(2-oxo-2-{[3-(trifluoromethyl)imidazo[5,1-b][1,3]thiazol-7-yl]amino}ethyl)phenyl] isonicotinamide] | 50 to 99
O=C(Cc1ccc(NC(=O)c2cccnc2)cc1)Nc1ncn2c(C(F)(F)F)csc12 [Example 61, N-[4-(2-oxo-2-{[3-(trifluoromethyl)imidazo[5,1-b][1,3]thiazol-7-yl]amino}ethyl)phenyl] nicotinamide] | 50 to 99
O=C(Cc1ccc(C(=O)N2CCCC2)cc1)Nc1ncn2c(C(F)(F)F)csc12 [Example 74, 2-[4-(pyrrolidin-1-ylcarbonyl)phenyl]-N-[3-(trifluoromethyl)imidazo[5,1-b][1,3]thiazol-7-yl]acetamide] | 50 to 99

The remaining lines, values ahead:

IC50 [nM] | Structure (SMILES)
50 to 99 | Nc1ccccc1-c1ccc(CC(=O)Nc2ncn3c(C(F)(F)F)csc23)cn1 [Example 63, 2-[6-(2-aminophenyl)pyridin-3-yl]-N-[3-(trifluoromethyl)imidazo[5,1-b][1,3]thiazol-7-yl]acetamide]
50 to 99 | O=C(Cc1ccc(CO)cc1)Nc1ncn2c(C(F)(F)F)csc12 [Example 71, 2-[4-(hydroxymethyl)phenyl]-N-[3-(trifluoromethyl)imidazo[5,1-b][1,3]thiazol-7-yl]acetamide]

Same assay, conditions: 500 nM-3 μM; 5 uM ATP, 0.3 nM CDK5-p25; read-out: IC50 potency, CDK5-p25 kinase enzymatic assay, 500 nM-3 μM

IC50 [nM] | Structure (SMILES)
500 to 3000 | Cc1csc2c(NC(=O)Cc3ccc4ccccc4c3)ncn12 [Example 65, N-(3-methylimidazo [5,1-b][1,3]thiazol-7-yl)-2-(2-naphthyl) acetamide]
500 to 3000 | O=C(Nc1ncn2c(C(F)(F)F)csc12)C(CO)c1ccc2ccccc2c1 (centres unmarked) [Example 67, 3-hydroxy-2-(2-naphthyl)-N-[3-(trifluoromethyl)imidazo[5,1-b][1,3]thiazol-7-yl]propanamide]
500 to 3000 | O=C(Cc1ccc2ccccc2c1)Nc1ncn2ccsc12 [Example 82, N-imidazo[5,1-b][1,3]thiazol-7-yl-2-(2-naphthyl)acetamide]
500 to 3000 | N#Cc1csc2c(NC(=O)Cc3ccc4ccccc4c3)ncn12 [Example 84, N-(3-cyanoimidazo[5,1-b][1,3]thiazol-7-yl)-2-(naphthalen-2-yl)acetamide]

Same assay, conditions: 5 uM ATP, 0.3 nM CDK5-p25; read-out: IC50 potency, CDK5-p25 kinase enzymatic assay, 100 nM-499 nM

IC50 [nM] | Structure (SMILES)
100 to 499 | O=C(CN1Cc2ccccc2C1)Nc1ncn2c(C(F)(F)F)csc12 [Example 68, 2-(1,3-dihydro-2H-isoindol-2-yl)-N-[3-(trifluoromethyl)imidazo[5,1-b][1,3]thiazol-7-yl]acetamide]
100 to 499 | O=C(Cc1ccnnc1)Nc1ncn2c(C(F)(F)F)csc12 [Example 72, 2-pyridazin-4-yl-N-[3-(trifluoromethyl)imidazo[5,1-b][1,3]thiazol-7-yl]acetamide]
100 to 499 | NCc1cccc(CC(=O)Nc2ncn3c(C(F)(F)F)csc23)c1 [Example 75, 2-[3-(aminomethyl)phenyl]-N-[3-(trifluoromethyl)imidazo[5,1-b][1,3]thiazol-7-yl]acetamide]

Same assay, conditions: '<50 nM'; 5 uM ATP, 0.3 nM CDK5-p25; read-out: IC50 potency, CDK5-p25 kinase enzymatic assay, <50 nM

Structure (SMILES) | IC50 [nM]
O=C(Cc1ccc(NC(=O)c2ccncc2)cc1)Nc1ncn2c(C(F)(F)F)csc12 [Example 62, N-[4-(2-oxo-2-{[3-(trifluoromethyl)imidazo[5,1-b][1,3]thiazol-7-yl]amino}ethyl)phenyl] isonicotinamide] | < 50
Cc1nc2cc(CC(=O)Nc3ncn4c(C(F)(F)F)csc34)ccc2o1 [Example 69, 2-(2-methyl-1,3-benzoxazol-5-yl)-N-[3-(trifluoromethyl)imidazo[5,1-b][1,3]thiazol-7-yl]acetamide] | < 50
O=C(Cc1cccc(-c2nn[nH]n2)c1)Nc1ncn2c(C(F)(F)F)csc12 [Example 80, 2-[3-(2H-tetrazol-5-yl)phenyl]-N-[3-(trifluoromethyl)imidazo[5,1-b][1,3]thiazol-7-yl]acetamide] | < 50
O=C(Cc1ccc2ccccc2c1)Nc1ncn2ccsc12 [Example 82, N-imidazo[5,1-b][1,3]thiazol-7-yl-2-(2-naphthyl)acetamide] | < 50
O=C(Cc1ccc2ccccc2c1)Nc1ncn2c(Br)csc12 [Example 83, N-(3-Bromoimidazo[5,1-b][1,3]thiazol-7-yl)-2-(naphthalen-2-yl)acetamide] | < 50
O=C(Cc1ccc2ccccc2c1)Nc1ncn2c(C(F)(F)F)c(C(=O)O)sc12 [Example 85, 7-[(Naphthalen-2-ylacetyl)amino]-3-(trifluoromethyl)imidazo[5,1-b][1,3]thiazole-2-carboxylic Acid] | < 50
NC(=O)c1sc2c(NC(=O)Cc3ccc4ccccc4c3)ncn2c1C(F)(F)F [Example 86, 7-[(Naphthalen-2-ylacetyl)amino]-3-(trifluoromethyl)imidazo[5,1-b][1,3]thiazole-2-carboxyamide] | < 50

The remaining lines, values ahead:

IC50 [nM] | Structure (SMILES)
< 50 | O=C(Cc1cccc(-c2ccncc2)c1)Nc1ncn2c(C(F)(F)F)csc12 [Example 64, 2-(3-pyridin-4-ylphenyl)-N-[3-(trifluoromethyl)imidazo[5,1-b][1,3]thiazol-7-yl]acetamide]
< 50 | O=C(Cc1cccc2ccccc12)Nc1ncn2c(C(F)(F)F)csc12 [Example 66, 2-(1-naphthyl)-N-[3-(trifluoromethyl)imidazo[5,1-b][1,3]thiazol-7-yl]acetamide]
< 50 | O=C(Cc1ccc(-c2nnco2)cc1)Nc1ncn2c(C(F)(F)F)csc12 [Example 70, 2-[4-(1,3,4-oxadiazol-2-yl)phenyl]-N-[3-(trifluoromethyl)imidazo[5,1-b][1,3]thiazol-7-yl]acetamide]
< 50 | O=C(Cc1ccc2[nH]cnc2c1)Nc1ncn2c(C(F)(F)F)csc12 [Example 73, 2-(1H-benzimidazol-5-yl)-N-[3-(trifluoromethyl)imidazo[5,1-b][1,3]thiazol-7-yl]acetamide]
< 50 | O=C(Cc1ccc(NC(=O)c2ccccc2)cc1)Nc1ncn2c(C(F)(F)F)csc12 [Example 79, N-[4-(2-oxo-2-{[3-(trifluoromethyl)imidazo[5,1-b][1,3]thiazol-7-yl)amino}ethyl)phenyl] benzamide]
< 50 | O=C(Cc1ccc(-c2nn[nH]n2)cc1)Nc1ncn2c(C(F)(F)F)csc12 [Example 81, 2-[4-(2H-tetrazol-5-yl)phenyl]-N-[3-(trifluoromethyl)imidazo[5,1-b][1,3]thiazol-7-yl]acetamide]
